In assay [1] the target is T1, Brd4 bromodomain 1 (BRD4(1)) (Homo sapiens, UniProt O60885).
T1 construct: made in house; host or cells: E. coli BL21(DE3)
Briefly: Inhibition of tetra-acetylated histone H4 binding to Brd4 bromodomain 1 (TR-FRET). As to conditions: tetra-acetylated histone H4 peptide, first bromodomain of Brd4. Put shortly:
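Serially diluted compound (0.2% DMSO) incubated 2 h at room temperature with 200 nM N-His BRD4 bromodomain 1 and 25-50 nM biotinylated tetra-acetyl H4 peptide, detected via Eu-streptavidin/XL665 anti-His. Loss of 665 nm relative to 620 nm signal gave IC50 from dose-response.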
(Time-resolved FRET reads energy transfer from a long-lived donor to a nearby acceptor.)

A further assay has as its system human AML MV-4-11 cells. Briefly: Inhibition of cell proliferation in MV4-11 cells (CellTiter Aqueous One). The assay is classed as cell-based. As to conditions: for IC50: MV4-11, 72 h. The gist of the method:
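IC50 values come from blank-corrected proliferation relative to DMSO controls, read as 490 nm absorbance 3–4 h after CellTiter Aqueous One addition. Before that, cells seeded at 5×10^4/well were exposed for 72 h (37° C, 5% CO2) to triplicate two-fold compound dilutions spanning 30–0.2 μM.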

The test system of the next assay is c-myc. Briefly: Inhibition of c-myc expression (mRNA, real-time PCR) in MV4-11 cells. The assay is classed as cell-based. The settings on record: Human AML MV4-11 cells, 3 h, cMYC mRNA. The gist of the method:
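One-step TaqMan qPCR of cMYC, normalized to an internal control with Cyclophilin probes run, gave fold expression versus DMSO (0.1%) control. Samples: triplicate MV4-11 wells exposed 3 h at 37° C to rising compound concentrations in IMDM with 10% FBS.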
(Real-time PCR tracks product formation cycle by cycle.)

For another assay, the system named is hIL-6 mRNA. Briefly: Inhibition of hIL-6 mRNA transcription in LPS-stimulated U937 cells. Format: cell-based. As to conditions: Homo sapiens, U-937; PMA-differentiated U937 cells, 1 h pretreatment, 1 ug/mL LPS stimulation, 3 h; read-out: IL-6 activity (Inhibition of hIL-6 mRNA Transcription). The gist of the method:
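U937 cells differentiated 3 days with 60 ng/mL PMA, pretreated 1 h with compound (0.1% DMSO), then stimulated with 1 ug/mL E. coli LPS for 3 h at 37 °C. hIL-6 mRNA measured by one-step TaqMan RT-qPCR, normalized to cyclophilin. Fold expression relative to control; triplicate wells.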

Where a name gives a salt, the structure may show the parent alone. Some results are limits rather than exact numbers.

Turning to `Cc1noc(C)c1-c1cc([N+](=O)[O-])c2nc(NCc3cccnc3)n(Cc3ccccc3)c2c1` [compound 148, 1-benzyl-6-(3,5-dimethylisoxazol-4-yl)-4-nitro-N-(pyridin-3-ylmethyl)-1H-benzo[d]imidazol-2-amine], the IC50 in assay [1] is at most 300 nM; with human AML MV-4-11 cells it was 300 to 3000 nM; with c-myc it was 300 to 3000 nM; with hIL-6 mRNA it was at most 300 nM.
For `Cc1noc(C)c1-c1cnc2cnn(Cc3ccsc3)c2c1` [compound 98, 3,5-dimethyl-4-(1-(thiophen-3-ylmethyl)-1H-pyrazolo[4,3-b]pyridin-6-yl)isoxazole], the IC50 (in assay [1]; in the assay on human AML MV-4-11 cells; with c-myc; in the assay on hIL-6 mRNA) was 300 to 3000 nM each time.
In the case of `CCn1c(=O)n(Cc2ccccc2)c2cc(-c3c(C)noc3C)ccc21` [compound 122], the IC50 in assay [1] was at most 300 nM; with human AML MV-4-11 cells, at most 300 nM; in the assay on c-myc, 300 to 3000 nM; with hIL-6 mRNA, 300 to 3000 nM.
For `Cc1noc(C)c1-c1cc(N(C)C)c2ncn(Cc3ccc(F)cc3)c2c1` [Example Compound 29, 6-(3,5-dimethylisoxazol-4-yl)-1-(4-fluorobenzyl)-N,N-dimethyl-1H-benzo[d]imidazol-4-amine], the IC50 in assay [1] was at most 300 nM; with human AML MV-4-11 cells, 300 to 3000 nM; in the assay on c-myc, 300 to 3000 nM; in the assay on hIL-6 mRNA, 300 to 3000 nM.
In the case of `Cc1noc(C)c1-c1cc(NCc2ccccc2)c2ncn(Cc3ccccc3)c2c1` [Example Compound 9, N,1-Dibenzyl-6-(3,5-dimethylisoxazol-4-yl)-1H-benzo[d]imidazol-4-amine], the IC50 (in assay [1]; with human AML MV-4-11 cells; in the assay with c-myc; in the assay with hIL-6 mRNA) was 3000 to 30000 nM throughout.
On to `CCNc1nc2ncc(-c3c(C)noc3C)cc2n1CC1CC1` [compound 131, 1-(cyclopropylmethyl)-6-(3,5-dimethylisoxazol-4-yl)-N-ethyl-1H-imidazo[4,5-b]pyridin-2-amine], for which the IC50 in assay [1] is at most 300 nM; with human AML MV-4-11 cells, 300 to 3000 nM; in the assay with c-myc, 300 to 3000 nM; in the assay on hIL-6 mRNA, 300 to 3000 nM.
With `CNc1nc2ncc(-c3c(C)noc3C)cc2n1Cc1ccccc1` [compound 146, 1-benzyl-6-(3,5-dimethylisoxazol-4-yl)-N-methyl-1H-imidazo[4,5-b]pyridin-2-amine], the IC50 (in assay [1]; with human AML MV-4-11 cells; in the assay with c-myc; with hIL-6 mRNA) was at most 300 nM each time.
With `Cc1noc(C)c1-c1cnc2c(Br)cn(Cc3ccccc3)c2c1` [Example Compound 34, 4-(1-benzyl-3-bromo-1H-pyrrolo[3,2-b]pyridin-6-yl)-3,5-dimethylisoxazole], the IC50 in assay [1] is at most 300 nM; with human AML MV-4-11 cells, 300 to 3000 nM; in the assay on c-myc, 300 to 3000 nM; with hIL-6 mRNA it was 300 to 3000 nM.
Regarding `Cc1noc(C)c1-c1cnc2nc(C)n(C(C)c3ccccc3)c2c1` (centres unmarked) [compound 108, 3,5-dimethyl-4-(2-methyl-1-(1-phenylethyl)-1H-imidazo[4,5-b]pyridin-6-yl)isoxazole], the IC50 in assay [1] is at most 300 nM; in the assay on human AML MV-4-11 cells, 300 to 3000 nM; with c-myc, 300 to 3000 nM; with hIL-6 mRNA, at most 300 nM.
On to `Cc1noc(C)c1-c1ccc2[nH]c(=O)n(Cc3ccccc3)c2n1` [Example Compound 2, 3-Benzyl-5-(3,5-dimethylisoxazol-4-yl)-1H-imidazo[4,5-b]pyridin-2(3H)-one], for which the IC50 in assay [1] is at most 300 nM; in the assay with human AML MV-4-11 cells, 300 to 3000 nM; in the assay on c-myc it was 3000 to 30000 nM; in the assay on hIL-6 mRNA, 300 to 3000 nM.
`Cc1cnn(C)c1-c1cc(N)c2nc(C)n(Cc3ccccc3)c2c1` [compound 82, 1-benzyl-6-(1,4-dimethyl-1H-pyrazol-5-yl)-2-methyl-1H-benzo[d]imidazol-4-amine]: the IC50 in assay [1] is 300 to 3000 nM; in the assay with human AML MV-4-11 cells it was 3000 to 30000 nM; in the assay with c-myc, 300 to 3000 nM; in the assay with hIL-6 mRNA, 300 to 3000 nM.
As to `Cc1noc(C)c1-c1cc(N)c2nc(C)n([C@H](C)c3ccccc3)c2c1` [compound 144, (R)-6-(3,5-dimethylisoxazol-4-yl)-2-methyl-1-(1-phenylethyl)-1H-benzo[d]imidazol-4-amine], the IC50 (in assay [1]; in the assay with human AML MV-4-11 cells; in the assay on c-myc; in the assay on hIL-6 mRNA) was at most 300 nM throughout.
As for `Cc1noc(C)c1-c1cc([N+](=O)[O-])c2[nH]c(=O)n(Cc3ccccc3)c2c1` [Example Compound 15, 1-benzyl-6-(3,5-dimethylisoxazol-4-yl)-4-nitro-1H-benzo[d]imidazol-2(3H)-one], the IC50 in assay [1] was at most 300 nM; with human AML MV-4-11 cells, 300 to 3000 nM; in the assay with c-myc it was 300 to 3000 nM; with hIL-6 mRNA it was 300 to 3000 nM.
For the compound `Cc1noc(C)c1-c1cnc2nc(C)n(Cc3ccc(Cl)c(Cl)c3)c2c1` [compound 95, 4-(1-(3,4-dichlorobenzyl)-2-methyl-1H-imidazo[4,5-b]pyridin-6-yl)-3,5-dimethylisoxazole], the IC50 in assay [1] was at most 300 nM; with human AML MV-4-11 cells, 300 to 3000 nM; in the assay with c-myc it was 300 to 3000 nM; with hIL-6 mRNA, 300 to 3000 nM.
On to `Cc1noc(C)c1-c1ccc2c(n1)[nH]c(=O)n2Cc1ccccc1` [Example Compound 3, 1-Benzyl-5-(3,5-dimethylisoxazol-4-yl)-1H-imidazo[4,5-b]pyridin-2(3H)-one], for which the IC50 in assay [1] is 300 to 3000 nM; in the assay on human AML MV-4-11 cells, 3000 to 30000 nM; in the assay on c-myc, 3000 to 30000 nM; with hIL-6 mRNA, 3000 to 30000 nM.
For `Cc1noc(C)c1-c1cc2c(ccn2Cc2ccccc2)nc1OC=O` [Example Compound 37, 1-benzyl-6-(3,5-dimethylisoxazol-4-yl)-1H-pyrrolo[3,2-b]pyridin-5-yl formate], the IC50 in assay [1] lay in the range of 300 to 3000 nM; in the assay on c-myc it was 3000 to 30000 nM; with hIL-6 mRNA it was 3000 to 30000 nM. Also, the “Cell Proliferation activity” value in the assay on human AML MV-4-11 cells (72 h) is recorded as “Not active”.
For `Cc1noc(C)c1-c1cnc2[nH]c(=O)n([C@H](C)c3ccccc3)c2c1` [compound 218, (R)-6-(3,5-dimethylisoxazol-4-yl)-1-(1-phenylethyl)-1H-imidazo[4,5-b]pyridin-2(3H)-one], the IC50 in assay [1] is at most 300 nM; in the assay on human AML MV-4-11 cells, 3000 to 30000 nM; in the assay on c-myc, 300 to 3000 nM; with hIL-6 mRNA, 300 to 3000 nM.
Regarding `COc1ccc(Cn2c(=O)[nH]c3c([N+](=O)[O-])cc(-c4c(C)noc4C)cc32)cc1` [compound 103, 6-(3,5-dimethylisoxazol-4-yl)-1-(4-methoxybenzyl)-4-nitro-1H-benzo[d]imidazol-2(3H)-one], the IC50 in assay [1] was at most 300 nM; in the assay with human AML MV-4-11 cells, 300 to 3000 nM; with c-myc, 300 to 3000 nM; in the assay on hIL-6 mRNA it was 300 to 3000 nM.
Take `COc1cc(-c2c(C)noc2C)cc2c1nc(C)n2Cc1ccccc1` [Example Compound 66, 4-(1-benzyl-4-methoxy-2-methyl-1H-benzo[d]imidazol-6-yl)-3,5-dimethylisoxazole]: the IC50 was at most 300 nM in assay [1], 300 to 3000 nM in the assay on human AML MV-4-11 cells, 300 to 3000 nM in the assay on c-myc and 300 to 3000 nM with hIL-6 mRNA.
Consider `Cc1noc(C)c1-c1cnc2nc(NC3CCOCC3)n(CC3CCC3)c2c1` [compound 223, 1-(cyclobutylmethyl)-6-(3,5-dimethylisoxazol-4-yl)-N-(tetrahydro-2H-pyran-4-yl)-1H-imidazo[4,5-b]pyridin-2-amine], for which the IC50 in assay [1] is at most 300 nM; with human AML MV-4-11 cells, 300 to 3000 nM; in the assay on c-myc, at most 300 nM; in the assay with hIL-6 mRNA, 300 to 3000 nM.

The record behind these values is patent US10363257B2 (ZENITH EPIGENETICS LTD., priority 2013, dated 2019).
